Measured values: patent publication US10501734B2, “Compositions and methods of use thereof for making polypeptides with many instances of nonstandard amino acids” (Yale University, priority 2014, dated 2019)
Non-standard residues stand in square brackets, D forms with d. Phe(4-N3) = [N-]=[N+]=Nc1ccc(C[C@H](N)C(=O)O)cc1

B1: ELPs containing 30 pAzF nsAAs: ELP(30TAG)-GFP with 30 pAzF conjugated by click reaction to palmitic acid-alkyne (conjugate)
chain: SKGPGVPGGGVPGAGVPG[Phe(4-N3)](palmitic acid‑alkyne)GVPGGGVPGAGVPG[Phe(4-N3)](palmitic acid‑alkyne)GVPGGGVPGAGVPG[Phe(4-N3)](palmitic acid‑alkyne)GVPGGGVPGAGVPG[Phe(4-N3)](palmitic acid‑alkyne)GVPGGGVPGAGVPG[Phe(4-N3)](palmitic acid‑alkyne)GVPGGGVPGAGVPG[Phe(4-N3)](palmitic acid‑alkyne)GVPGGGVPGAGVPG[Phe(4-N3)](palmitic acid‑alkyne)GVPGGGVPGAGVPG[Phe(4-N3)](palmitic acid‑alkyne)GVPGGGVPGAGVPG[Phe(4-N3)](palmitic acid‑alkyne)GVPGGGVPGAGVPG[Phe(4-N3)](palmitic acid‑alkyne)GVPGGGVPGAGVPG[Phe(4-N3)](palmitic acid‑alkyne)GVPGGGVPGAGVPG[Phe(4-N3)](palmitic acid‑alkyne)GVPGGGVPGAGVPG[Phe(4-N3)](palmitic acid‑alkyne)GVPGGGVPGAGVPG[Phe(4-N3)](palmitic acid‑alkyne)GVPGGGVPGAGVPG[Phe(4-N3)](palmitic acid‑alkyne)GVPGGGVPGAGVPG[Phe(4-N3)](palmitic acid‑alkyne)GVPGGGVPGAGVPG[Phe(4-N3)](palmitic acid‑alkyne)GVPGGGVPGAGVPG[Phe(4-N3)](palmitic acid‑alkyne)GVPGGGVPGAGVPG[Phe(4-N3)](palmitic acid‑alkyne)GVPGGGVPGAGVPG[Phe(4-N3)](palmitic acid‑alkyne)GVPGGGVPGAGVPG[Phe(4-N3)](palmitic acid‑alkyne)GVPGGGVPGAGVPG[Phe(4-N3)](palmitic acid‑alkyne)GVPGGGVPGAGVPG[Phe(4-N3)](palmitic acid‑alkyne)GVPGGGVPGAGVPG[Phe(4-N3)](palmitic acid‑alkyne)GVPGGGVPGAGVPG[Phe(4-N3)](palmitic acid‑alkyne)GVPGGGVPGAGVPG[Phe(4-N3)](palmitic acid‑alkyne)GVPGGGVPGAGVPG[Phe(4-N3)](palmitic acid‑alkyne)GVPGGGVPGAGVPG[Phe(4-N3)](palmitic acid‑alkyne)GVPGGGVPGAGVPG[Phe(4-N3)](palmitic acid‑alkyne)GVPGGGVPGAGVPG[Phe(4-N3)](palmitic acid‑alkyne)GPGGGG-{GFP}
modifications: also: conjugated by click reaction
notes: ELP(30TAG)-GFP with 30 pAzF conjugated by click reaction to palmitic acid-alkyne

What was measured:
[1] = system: GFP(3TAG); type: cell-based, E. coli; conditions: plasmid-based pAcF OTS in the GRO
Protocol: (§1) Liquid cell cultures of strains harboring chromosomally integrated OTSs and GFP reporter plasmids were inoculated from frozen stocks and grown to confluence overnight. Cultures were then inoculated at 1:20 dilution in LBmin media supplemented with 30 μg/ml kanamycin. Strains were inoculated by addition of 1:20 confluent cell culture (grown overnight) and allowed to grow at 34° C. to an OD600 of 0.5-0.8 in a shaking plate incubator at 650 r.p.m (˜3 h). AARS expression was then induced by the addition of 0.2% arabinose, GFP expression was induced by the addition of 60 ng/ul anhydrotetracycline, and the appropriate nsAA was added to a concentration of 1 mM. Cells were incubated at 34° C. for an additional 16 h. Liquid cell cultures of strains harboring plasmid-based OTSs and GFP or ELP-GFP reporter plasmids were inoculated from frozen stocks and grown to confluence overnight. Cultures were then inoculated at 1:20 dilution in 2×YT media supplemented with 30 μg/ml kanamycin and 20 μg/ml chloramphenicol. […] Cells were allowed to grow at 34° C. to an OD600 of 0.5-0.8 in a shaking plate incubator at 650 r.p.m (˜3 h), reporter protein expression was then induced by the addition of 60 ng/ul anhydrotetracycline, and cells were incubated at 34° C. for an additional 16 h.
(§2) For 384 well plate-based assays, fluorescence and OD600 were directly measured following expression. For 96 well plate-based assays, cells were centrifuged at 4,000 g for 4 min. Supernatant medium was removed and cells were resuspended in PBS. This process was repeated twice with PBS. GFP fluorescence was measured on a Biotek spectrophotometric plate reader using excitation and emission wavelengths of 395 and 509 nm, respectively). Fluorescence signals were normalized by dividing the fluorescence counts by the OD600 reading. The nsAAs used in this study were purchased from Sigma-Aldrich (St. Louis, Mo.), Chemlmpex (Wood Dale, Ill.), and Bachem (Torrance, Calif.). Solutions of nsAAs (50 mM) were made in water or 50 mM NaOH; these stock solutions were diluted 50- or 100-fold (to 1 mM final concentration) into medium used for bacterial growth.

[2] = system: ELP(10TAG)-GFP; experiment: Intact cell GFP fluorescence, ELP(10TAG)-GFP production; design: species or system E. coli; conditions: plasmid-based pAcF OTS in the GRO
Protocol: Liquid cell cultures of strains harboring chromosomally integrated OTSs and GFP reporter plasmids were inoculated from frozen stocks and grown to confluence overnight. Cultures were then inoculated at 1:20 dilution in LBmin media supplemented with 30 μg/ml kanamycin. Strains were inoculated by addition of 1:20 confluent cell culture (grown overnight) and allowed to grow at 34° C. to an OD600 of 0.5-0.8 in a shaking plate incubator at 650 r.p.m (˜3 h). AARS expression was then induced by the addition of 0.2% arabinose, GFP expression was induced by the addition of 60 ng/ul anhydrotetracycline, and the appropriate nsAA was added to a concentration of 1 mM. Cells were incubated at 34° C. for an additional 16 h. Liquid cell cultures of strains harboring plasmid-based OTSs and GFP or ELP-GFP reporter plasmids were inoculated from frozen stocks and grown to confluence overnight. Cultures were then inoculated at 1:20 dilution in 2×YT media supplemented with 30 μg/ml kanamycin and 20 μg/ml chloramphenicol. […]
For 384 well plate-based assays, fluorescence and OD600 were directly measured following expression. […] GFP fluorescence was measured on a Biotek spectrophotometric plate reader using excitation and emission wavelengths of 395 and 509 nm, respectively). Fluorescence signals were normalized by dividing the fluorescence counts by the OD600 reading. […]

[3] = system: ELP(30TAG)-GFP; experiment: Intact cell GFP fluorescence, ELP(30TAG)-GFP production; type: cell-based, E. coli; conditions: plasmid-based pAcF OTS in the GRO
Protocol: as §1, §2

[4] = system: ELP(30TAG)-GFP; experiment: ELP expression and purification, yield of purified ELP(30TAG)-GFP; type: cell-based, E. coli; conditions: for yield of purified ELP(30TAG)-GFP compared to expression of WT protein: small batch cultures
Protocol: Before batch expression, starter cultures (2 mL) of 2×YT media supplemented with 30 μg/mL kanamayacin and 20 μg/mL chloramphenicol were inoculated with transformed cells from a fresh agar plate or from stocks stored at −80° C., and incubated overnight at 34° C. while shaking at 250 rpm. Expression cultures (250 ml flasks containing 50 ml of 2×YT media, antibiotics, 0.2% arabinose and 1 mM of the nsAA) were inoculated with 0.5 ml of the starter culture and incubated at 34° C. for 4 h and then reporter protein expression was induced with 60 μg/mL anhydrotetracyclin.
Cells were harvested 24 h after inoculation by centrifugation at 4,000 g for 15 min at 4° C. The cell pellet was resuspended by vortex in ˜1.5 mL PBS buffer and stored at −80° C. or immediately purified. For purification, resuspended pellets were lysed by ultrasonic disruption (9 cycles of 10 s sonication separated by 40 s intervals). Poly(ethyleneimine) (0.2 mL of 10% solution) was added to each lysed suspension before centrifugation at 15,000 g for 3 min to separate cell debris from the soluble cell lysate.
All ELP constructs were purified by a modified Inverse Transition Cycling (ITC) protocol consisting of multiple “hot” and “cold” spins using sodium citrate to trigger the phase transition. Before purification, the soluble cell lysate was incubated for 1-2 min at ˜65° C. to denature native E. coli proteins. For “hot” spins, the ELP phase transition was triggered by adding sodium citrate to the cell lysate or the product of a previous cycle of ITC at a final concentration of ˜0.5 M. The solutions were then centrifuged at 14,000 g for 3 min and the pellets were resuspended in PBS, followed by a 3-5 min “cold” spin performed without addition of sodium citrate to remove denatured contaminant. Additional rounds of ITC were carried out as needed until sufficient purification was achieved.
Protein concentration was calculated by measuring the OD280 of purified protein stocks according to the following extinction coefficients for ELP(30TAG)-GFP.

[5] = target: BSA (Bos taurus, UniProt P02769); experiment: Binding to BSA coated agarose beads, GFP fluorescence; conditions: palmitic acid conjugated; 30 vs. 1 pAzF instances
Excerpt: When supplied with insufficient amounts of alkyne (a ratio of 0.125, 0.25 and 0.5 alkyne:azide), a partial shift was observed as well as a “smear” of the protein band that signifies stochastic reaction of less than 30 sites. In contrast, when sufficient alkyne was supplied, a sharp band is apparent with a consistent size shift compared with the unreacted control. Next, ELP-GFP containing either 30 azide groups or a single azide group and 30 tyrosine groups were contacted with BSA coated agarose beads. The beads were subsequently washed and the amount of protein bound to the beads was measured via GFP fluorescence. The results are illustrated in FIG. 11.

Chain of BSA (P02769 25-607): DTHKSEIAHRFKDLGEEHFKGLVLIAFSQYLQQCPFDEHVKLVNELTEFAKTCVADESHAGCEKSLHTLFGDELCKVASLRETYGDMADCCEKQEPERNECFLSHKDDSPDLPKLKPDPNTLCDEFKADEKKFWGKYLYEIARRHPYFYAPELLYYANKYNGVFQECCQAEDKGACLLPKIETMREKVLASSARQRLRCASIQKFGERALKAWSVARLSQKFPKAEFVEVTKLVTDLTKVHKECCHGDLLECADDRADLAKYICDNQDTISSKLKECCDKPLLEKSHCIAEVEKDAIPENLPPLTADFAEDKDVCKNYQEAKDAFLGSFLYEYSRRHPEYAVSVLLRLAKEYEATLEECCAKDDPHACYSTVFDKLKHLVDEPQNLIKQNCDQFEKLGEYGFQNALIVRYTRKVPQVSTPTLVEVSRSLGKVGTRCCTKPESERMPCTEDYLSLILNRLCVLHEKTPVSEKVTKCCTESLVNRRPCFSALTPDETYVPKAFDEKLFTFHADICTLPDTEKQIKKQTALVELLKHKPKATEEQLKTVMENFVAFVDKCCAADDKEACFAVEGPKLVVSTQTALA

Row | BSA binding [5] | Molecule | GFP(3TAG) fluorescence compared to WT-protein [1] | ELP(10TAG)-GFP fluorescence compared to WT-protein [2] | ELP(30TAG)-GFP fluorescence compared to WT-protein [3] | Yield of purified ELP(30TAG)-GFP ([4]; nsAA pAzF, GRO) | yield of purified ELP(30TAG)-GFP compared to expression of WT protein ([4]; GRO) | yield of purified ELP(30TAG)-GFP compared to expression of WT protein ([4]; parent (non-recoded) strain)
1 | – | [N-]=[N+]=Nc1ccc(C[C@H](N)C(=O)O)cc1 [pAzF, p-azido-L-phenylalanine, reference compound] | 75% | 32% | 6% | too low to allow for purification | – | –
2 | – | CC(=O)c1ccc(C[C@H](N)C(=O)O)cc1 [pAcF, p-acetyl-L-phenylalanine, reference compound] | 110% | 87% | 25% | – | 18% | 8%
3 | improved BSA binding | B1 | – | – | – | – | – | –
